Results on one compound are retold here after publication PMC11870743, “Endothelial OX40 activation facilitates tumor cell escape from T cell surveillance through S1P/YAP-mediated angiogenesis” (The Journal of Clinical Investigation, 2025).

The assay has as its target T1, YAP (Yes 1–associated protein), purified (Homo sapiens, UniProt P46937).
T1 construct: gene YAP1; purified YAP protein
The experiment in a line: microscale thermophoresis. The format is binding. The note with it: read-out: dissociation constant. On the technique in general: MST reads how a fluorescent partner responds to local heating, with and without ligand.

T1 sequence (P46937 whole entry): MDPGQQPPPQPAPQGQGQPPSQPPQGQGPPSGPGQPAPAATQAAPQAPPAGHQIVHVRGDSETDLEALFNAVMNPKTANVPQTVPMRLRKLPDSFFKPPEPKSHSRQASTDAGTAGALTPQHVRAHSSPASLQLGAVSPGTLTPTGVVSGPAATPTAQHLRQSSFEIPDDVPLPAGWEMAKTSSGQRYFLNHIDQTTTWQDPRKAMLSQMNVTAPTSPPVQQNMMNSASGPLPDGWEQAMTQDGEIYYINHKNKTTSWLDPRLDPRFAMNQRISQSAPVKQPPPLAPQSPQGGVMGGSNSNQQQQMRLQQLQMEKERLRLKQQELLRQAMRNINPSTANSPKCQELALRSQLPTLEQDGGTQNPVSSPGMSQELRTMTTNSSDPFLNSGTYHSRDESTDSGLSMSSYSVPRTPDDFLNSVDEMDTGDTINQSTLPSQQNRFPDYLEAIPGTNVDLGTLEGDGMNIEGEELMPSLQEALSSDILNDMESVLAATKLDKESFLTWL

As to `CCCCCCCCCCCCC/C=C/[C@@H](O)[C@@H](N)COP(=O)(O)O` [sphingosine 1-phosphate], the Kd was 13 µM.
